From the supplement of paper PMC4862054

Key:
CAL-85-1 [1] = experiment: normalised viability (% of control), CellTiter-Blue; higher = more viable cells (100 = DMSO, 0 = benzethonium chloride kill control); conditions: incubation time: 72 h
Experimental: (§1)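 DSRT, CellTiter-Blue viability, 72 h incubation. Signal is normalised to DMSO and benzethonium chloride controls. Value is the normalised response at dose 1.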

BT-474 [2] = experiment: as above; conditions: incubation time: 72 h
Experimental: as §1

Hs578T [3] = experiment: as above; conditions: incubation time: 72 h
Experimental: as §1

MFM-223 [4] = experiment: as above; conditions: incubation time: 72 h
Experimental: as §1

MDA-MB-231 [5] = experiment: as above; conditions: incubation time: 72 h
Experimental: as §1

HCC1143 [6] = experiment: as above; conditions: incubation time: 72 h
Experimental: as §1

DU-4475 [7] = experiment: as above; conditions: incubation time: 72 h
Experimental: as §1

SK-BR-3 [8] = experiment: as above; conditions: incubation time: 72 h
Experimental: as §1

MDA-MB-468 [9] = experiment: as above; conditions: incubation time: 72 h
Experimental: as §1

HCC1599 [10] = experiment: as above; conditions: incubation time: 72 h
Experimental: as §1

HDQ-P1 [11] = experiment: as above; conditions: incubation time: 72 h
Experimental: as §1

MDA-MB-436 [12] = experiment: as above; conditions: incubation time: 72 h
Experimental: as §1

BT-549 [13] = experiment: as above; conditions: incubation time: 72 h
Experimental: as §1

CAL-120 [14] = experiment: as above; conditions: incubation time: 72 h
Experimental: as §1

MDA-MB-453 [15] = experiment: as above; conditions: incubation time: 72 h
Experimental: as §1

HCC1937 [16] = experiment: as above; conditions: incubation time: 72 h
Experimental: as §1

CAL-148 [17] = experiment: as above; conditions: incubation time: 72 h
Experimental: as §1

CAL-51 [18] = experiment: as above; conditions: incubation time: 72 h
Experimental: as §1

CAL-85-1 [19] = experiment: normalised viability (% of control), CellTiter-Blue; higher = more viable cells (about 100 = DMSO control); conditions: 10 nM; incubation time: 72 h
Experimental: (§2)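 DSRT, CellTiter-Blue viability, 72 h incubation. Signal is normalised to DMSO and benzethonium chloride controls. Value is the normalised response at dose 3.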

BT-474 [20] = experiment: as above; conditions: 100 nM; incubation time: 72 h
Experimental: as §2

Hs578T [21] = experiment: as above; conditions: 100 nM; incubation time: 72 h
Experimental: as §2

MFM-223 [22] = experiment: as above; conditions: 100 nM; incubation time: 72 h
Experimental: as §2

MDA-MB-231 [23] = experiment: as above; conditions: 100 nM; incubation time: 72 h
Experimental: as §2

HCC1143 [24] = experiment: as above; conditions: 100 nM; incubation time: 72 h
Experimental: as §2

DU-4475 [25] = experiment: as above; conditions: 10 nM; incubation time: 72 h
Experimental: as §2

SK-BR-3 [26] = experiment: as above; conditions: 100 nM; incubation time: 72 h
Experimental: as §2

MDA-MB-468 [27] = experiment: as above; conditions: 100 nM; incubation time: 72 h
Experimental: as §2

HCC1599 [28] = experiment: as above; conditions: 100 nM; incubation time: 72 h
Experimental: as §2

HDQ-P1 [29] = experiment: as above; conditions: 10 nM; incubation time: 72 h
Experimental: as §2

MDA-MB-436 [30] = experiment: as above; conditions: 100 nM; incubation time: 72 h
Experimental: as §2

BT-549 [31] = experiment: as above; conditions: 100 nM; incubation time: 72 h
Experimental: as §2

CAL-120 [32] = experiment: as above; conditions: 100 nM; incubation time: 72 h
Experimental: as §2

MDA-MB-453 [33] = experiment: as above; conditions: 10 nM; incubation time: 72 h
Experimental: as §2

HCC1937 [34] = experiment: as above; conditions: 100 nM; incubation time: 72 h
Experimental: as §2

CAL-148 [35] = experiment: as above; conditions: 10 nM; incubation time: 72 h
Experimental: as §2

CAL-51 [36] = experiment: as above; conditions: 10 nM; incubation time: 72 h
Experimental: as §2

CAL-85-1 [37] = experiment: normalised viability (% of control), CellTiter-Blue; higher = more viable cells (about 100 = DMSO control); conditions: incubation time: 72 h
Method in brief: (§3)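 Breast cancer cell lines in 20 µl suspension were seeded onto 384-well plates pre-loaded with compound dissolved in 5 µl medium, then incubated 72 h. CellTiter-Blue reagent (2.5 µl) was added for 2 h at 37 °C and fluorescence read at 560/590 nm. Each plate was normalised to vehicle (100) and a positive kill control (0), with Z'-factor quality control. The value is normalised viability at one listed concentration of the series.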

BT-474 [38] = experiment: as above; conditions: incubation time: 72 h
Method in brief: as §3

Hs578T [39] = experiment: as above; conditions: incubation time: 72 h
Method in brief: as §3

MFM-223 [40] = experiment: as above; conditions: incubation time: 72 h
Method in brief: as §3

MDA-MB-231 [41] = experiment: as above; conditions: incubation time: 72 h
Method in brief: as §3

HCC1143 [42] = experiment: as above; conditions: incubation time: 72 h
Method in brief: as §3

DU-4475 [43] = experiment: as above; conditions: incubation time: 72 h
Method in brief: as §3

SK-BR-3 [44] = experiment: as above; conditions: incubation time: 72 h
Method in brief: as §3

MDA-MB-468 [45] = experiment: as above; conditions: incubation time: 72 h
Method in brief: as §3

HCC1599 [46] = experiment: as above; conditions: incubation time: 72 h
Method in brief: as §3

HDQ-P1 [47] = experiment: as above; conditions: incubation time: 72 h
Method in brief: as §3

MDA-MB-436 [48] = experiment: as above; conditions: incubation time: 72 h
Method in brief: as §3

BT-549 [49] = experiment: as above; conditions: incubation time: 72 h
Method in brief: as §3

CAL-120 [50] = experiment: as above; conditions: incubation time: 72 h
Method in brief: as §3

MDA-MB-453 [51] = experiment: as above; conditions: incubation time: 72 h
Method in brief: as §3

HCC1937 [52] = experiment: as above; conditions: incubation time: 72 h
Method in brief: as §3

CAL-148 [53] = experiment: as above; conditions: incubation time: 72 h
Method in brief: as §3

CAL-51 [54] = experiment: as above; conditions: incubation time: 72 h
Method in brief: as §3

SMILES: CCCC(CCC)C(=O)O [Valproic acid] (1 nM)
- normalised viability (CAL-85-1 [1]): 95.3%
- normalised viability (BT-474 [2]): 99%
- normalised viability (Hs578T [3]): 130%
- normalised viability (MFM-223 [4]): 104%
- normalised viability (MDA-MB-231 [5]): 97.7%
- normalised viability (HCC1143 [6]): 99.1%
- normalised viability (DU-4475 [7]): 109%
- normalised viability (SK-BR-3 [8]): 103%
- normalised viability (MDA-MB-468 [9]): 102%
- normalised viability (HCC1599 [10]): 83.6%
- normalised viability (HDQ-P1 [11]): 119%
- normalised viability (MDA-MB-436 [12]): 89.9%
- normalised viability (BT-549 [13]): 98.6%
- normalised viability (CAL-120 [14]): 105%
- normalised viability (MDA-MB-453 [15]): 108%
- normalised viability (HCC1937 [16]): 115%
- normalised viability (CAL-148 [17]): 103%
- normalised viability (CAL-51 [18]): 99.8%

SMILES: COC(=O)C[C@](O)(CCCC(C)(C)O)C(=O)O[C@@H]1C(OC)=C[C@]23CCCN2CCc2cc4c(cc2[C@H]13)OCO4 [Omacetaxine mepesuccinate]
- normalised viability (CAL-85-1 [19]): 79.7%
- normalised viability (BT-474 [20]): 54.8%
- normalised viability (Hs578T [21]): 6.8%
- normalised viability (MFM-223 [22]): 31%
- normalised viability (MDA-MB-231 [23]): 22.1%
- normalised viability (HCC1143 [24]): 37.7%
- normalised viability (DU-4475 [25]): 25.1%
- normalised viability (SK-BR-3 [26]): 18.3%
- normalised viability (MDA-MB-468 [27]): 17.7%
- normalised viability (HCC1599 [28]): 29.4%
- normalised viability (HDQ-P1 [29]): 73%
- normalised viability (MDA-MB-436 [30]): 21.4%
- normalised viability (BT-549 [31]): 19.2%
- normalised viability (CAL-120 [32]): 15.1%
- normalised viability (MDA-MB-453 [33]): 90.2%
- normalised viability (HCC1937 [34]): 14.9%
- normalised viability (CAL-148 [35]): 67.6%
- normalised viability (CAL-51 [36]): 92.8%
- normalised viability (CAL-85-1 [37]; 3 nM): 86.8%
- normalised viability (CAL-85-1 [37]; 30 nM): 25.3%
- normalised viability (CAL-85-1 [37]; 100 nM): 9.04%
- normalised viability (BT-474 [38]; 10 nM): 118%
- normalised viability (BT-474 [38]; 1000 nM): 23%
- normalised viability (BT-474 [38]; 10000 nM): 13.3%
- normalised viability (Hs578T [39]; 10 nM): 111%
- normalised viability (Hs578T [39]; 1000 nM): 1.46%
- normalised viability (Hs578T [39]; 10000 nM): 1.1%
- normalised viability (MFM-223 [40]; 10 nM): 88.3%
- normalised viability (MFM-223 [40]; 1000 nM): 8.87%
- normalised viability (MFM-223 [40]; 10000 nM): 4.39%
- normalised viability (MDA-MB-231 [41]; 10 nM): 87.9%
- normalised viability (MDA-MB-231 [41]; 1000 nM): 6.79%
- normalised viability (MDA-MB-231 [41]; 10000 nM): 3.89%
- normalised viability (HCC1143 [42]; 10 nM): 87.2%
- normalised viability (HCC1143 [42]; 1000 nM): 14.2%
- normalised viability (HCC1143 [42]; 10000 nM): 11%
- normalised viability (DU-4475 [43]; 3 nM): 81%
- normalised viability (DU-4475 [43]; 30 nM): 2.2%
- normalised viability (DU-4475 [43]; 100 nM): 4.43%
- normalised viability (SK-BR-3 [44]; 10 nM): 89.4%
- normalised viability (SK-BR-3 [44]; 1000 nM): 6.71%
- normalised viability (SK-BR-3 [44]; 10000 nM): 3.15%
- normalised viability (MDA-MB-468 [45]; 10 nM): 90.2%
- normalised viability (MDA-MB-468 [45]; 1000 nM): 4.25%
- normalised viability (MDA-MB-468 [45]; 10000 nM): 3.02%
- normalised viability (HCC1599 [46]; 10 nM): 68.9%
- normalised viability (HCC1599 [46]; 1000 nM): 17%
- normalised viability (HCC1599 [46]; 10000 nM): 12.9%
- normalised viability (HDQ-P1 [47]; 3 nM): 92.5%
- normalised viability (HDQ-P1 [47]; 30 nM): 24.6%
- normalised viability (HDQ-P1 [47]; 100 nM): 14.9%
- normalised viability (MDA-MB-436 [48]; 10 nM): 88.5%
- normalised viability (MDA-MB-436 [48]; 1000 nM): 19%
- normalised viability (MDA-MB-436 [48]; 10000 nM): 11.7%
- normalised viability (BT-549 [49]; 10 nM): 87.2%
- normalised viability (BT-549 [49]; 1000 nM): 7.63%
- normalised viability (BT-549 [49]; 10000 nM): 4.5%
- normalised viability (CAL-120 [50]; 10 nM): 69.2%
- normalised viability (CAL-120 [50]; 1000 nM): 7.92%
- normalised viability (CAL-120 [50]; 10000 nM): 5.91%
- normalised viability (MDA-MB-453 [51]; 3 nM): 109%
- normalised viability (MDA-MB-453 [51]; 30 nM): 44.5%
- normalised viability (MDA-MB-453 [51]; 100 nM): 21.4%
- normalised viability (HCC1937 [52]; 10 nM): 55.9%
- normalised viability (HCC1937 [52]; 1000 nM): 13.9%
- normalised viability (HCC1937 [52]; 10000 nM): 14.3%
- normalised viability (CAL-148 [53]; 3 nM): 96.3%
- normalised viability (CAL-148 [53]; 30 nM): 26%
- normalised viability (CAL-148 [53]; 100 nM): 14.8%
- normalised viability (CAL-51 [54]; 3 nM): 101%
- normalised viability (CAL-51 [54]; 30 nM): 31.6%
- normalised viability (CAL-51 [54]; 100 nM): 11.8%
